One molecule from patent US20250339426A1, “GCN2 MODULATOR FOR TREATING CANCER” (HIBERCELL, INC., priority 2022, published 2025) can be followed below.

Assay [1] deals with ASNS, PHGDH, PUMA, PSAT1, S100A8/A9 in MV4-11 tumors. In words: Tumor IHC, MV4-11 tumors (venetoclax combination study). Type of assay: in vivo, BALB/c nude mice. As to conditions: end-of-study tumors. The protocol:
Immunohistochemical analysis was carried out on tumors that were collected at the end of the study described in Example 6. Formalin-fixed paraffin-embedded samples were sectioned at 5 μm thickness and mounted on Superfrost Plus microscope slides (Fisher Scientific). All immunohistochemical (IHC) staining was performed on Bond Rx auto-stainer (Leica Biosystems) using the conventional TSA-amplified detection system. Primary antibodies used were as follows: a-ASNS (Cell Signaling Technology #92479), a-PUMA (Cell Signaling Technology #98672), a-PSAT1 (Proteintech #10501-1-AP), a-PHGDH (Proteintech #14719-1-AP), HIF-1a-Novus Biologicals NB 100-479, HIF-2a-Novus Biologicals NB100-122SS, and GLUT-1-EMB Biosciences 07-1401. TSA-conjugated Alexa488, Alexa 568 and Alexa647 fluorophores from Invitrogen (#B40953, #B40956, and #B40958) were used at 1:500 dilution. Slides were counterstained with DAPI and cover slipped using Mowiol anti-fade mounting media (Sigma #D2522).
Slides were imaged with Aperio Versa 200 (Leica Biosystems) whole-slide scanner using 10×/0.32NA objective, and the data were analyzed using custom-written macros in ImageJ/FIJI (NIH). Briefly, 150 μm of outer edges of the tumor sections and necrotic regions (determined by lack of 4′,6-diamidino-2-phenylindole (DAPI) signal or presence of condensed DNA) were eliminated from the analysis. Gaussian-blurred DAPI channel was used to measure the area of the tumor tissue. Scans of immune-staining were processed to remove background, then total intensity value above appropriate threshold levels was measured and normalized to tissue area. All graphing and statistics (one-way ANOVA and pair-wise comparisons) were performed using Prism GraphPad.
Slides were deparaffinized, rehydrated and heat mediated antigen retrieval was conducted with AR6 buffer (Akoya). Slides were blocked with Roche diagnostics antibody diluent (Fisher) and stained with primary antibodies for 1 hr at 110 rpm. After washing, horseradish peroxidase (HRP)-conjugated secondary antibodies were added for 10 mins at 110 rpm. After washing, OPAL detection dye (Akoya) was added for a static 10 min incubation. Antigen retrieval was performed post OPAL staining, followed by DAPI staining and slide covering. Multispectral images were captured on the Polaris imaging system (Akoya) and spectral unmixing, cell segmentation and phenotyping was performed using Inform Tissue Finder software (Akoya). Imaging data was converted into .csv files and imported into Flowjo for analysis of S100A8/A9 percent positive cells. Primary antibodies used were rabbit anti-human/mouse S100A8/A9 (Clone RM1038, Abcam ab288715, paired with Opal 570).
Immunohistochemical analysis was performed on the tumors according to the procedures described in Example 7.

In assay [2] the test system is MOLM-16 (human AML cells). In words: In vivo tumor growth inhibition, MOLM-16 xenograft. Further details: species or system NOD SCID mice. As for the experimental part:
MOLM-16 (human AML cells): Female 6-8 weeks old nonobese diabetic/severe combined immunodeficiency (NOD SCID) mice were inoculated subcutaneously on the right flank with MOLM-16 tumor cells (1×10^7) in RPMI 1640 without serum for tumor development. The treatments were started when the mean tumor size reached approximately 220 mm^3 at Day 14 after cell inoculation and continued until end of study by twice daily oral gavage dosing of HC-7366 at listed doses (vehicle, 0.25 mg/kg HC-7366, 0.5 mg/kg HC-7366, 1 mg/kg HC-7366, or 2 mg/kg HC-7366, FIG. 16)
(§1) [formula] • 2.2.2 Tumor Measurements: The measurement of tumor size was conducted three times weekly with a caliper and recorded. The tumor volume (mm^3) was estimated using the formula: TV=a×b^2/2, where “a” and “b” is long and short diameters of a tumor, respectively. Tumor volume was calculated using the formula [tumor volume (mm^3)=π/6×length×width^2).
(§2) Regression was calculated using the formula=100×ΔT/T initial, if ΔT<0. Animals with 0 mm^3 tumor volume (no measurable tumor) for three consecutive measurements were considered as complete responders and animals with 50% tumor regressions were partial responders.

Assay [3] concerns FaDu (human head and neck cancer cells). In words: In vivo tumor growth inhibition, FaDu xenograft. Further details: species or system BALB/c nude mice. The protocol: FaDu (human head and neck cancer cells): Female 6-8 weeks old BALB/c nude mice were inoculated subcutaneously on the right flank with FaDu tumor cells (5×10^6) in 0.1 ml of EMEM medium without serum for tumor development. The treatments were started when the mean tumor size reached approximately 194 mm^3 at Day 21 post inoculation and continued until end of study by twice daily oral gavage dosing of HC-7366 at listed doses (vehicle, 0.3 mg/kg HC-7366, 1 mg/kg HC-7366, 3 mg/kg HC-7366, 10 mg/kg HC-7366, or 30 mg/kg HC-7366, FIG. 11-13).
as §1, §2

The subject of the next assay is ATF4. In words: ATF4 activity assay (HEK293-ATF4-Luc, luciferase). The format is cell-based. As to conditions: 12.5 nM Halofuginone, 6 hours, FIG. 3. The protocol:
HEK293-ATF4-Luc cells were with culture medium 1.5e^5 cells/mL and 25 μL of cell suspension was added into each well of 384-well cell culture plate (Corning, CLS3570-50EA) as designated and transferred into 37° C.-5% CO2 incubator (Thermo Scientific) overnight for cell attachment. HC-7366 was serially diluted to 11 concentrations by 3-fold dilution in DMSO and 25 nL of stock was plated into cell plate by Echo550 (Labcyte, Echo550), then incubated for 30 minutes at 37° C. After HC-7366 treatment, cells were treated with either DMSO or 12.5 nM Halofuginone to activate GCN2 for 6 hours. After 6 hours, 25 μL of One-Glo reagent (Promega, cat #: E6120) was added into each well to be detected (at 1:1 to culture medium). Then the plates were placed at room temperature for 10 min followed by luciferase luminescence reading on EnVision (PerkinElmer). The data were analyzed by XLfit (v5.3.1.3), equation 201.

[4] abbreviates: HC-7366 3 mg/kg, alone or with venetoclax.

Turning to `CNC(=O)c1ncn2cc(-c3c(F)ccc(NS(=O)(=O)c4cc(Cl)cnc4OC)c3F)ncc12` [HC-7366, 6-(3-((5-chloro-2-methoxypyridine)-3-sulfonamido)-2,6-difluorophenyl)-N-methylimidazo[1,5-a]pyrazine-1-carboxamide], the PSAT1 levels result in assay [1] was “did not change”. Also, in assay [1] (setting [4]), the “ASNS by IHC” value is listed as “potent activation”, the “PHGDH by IHC” value was “potent activation” and the “PUMA by IHC” value is “potent activation”. In assay [1] (single agents and combination), the S100A8/A9 levels entry is given as “significantly reduced”. Also, in assay [2] (2 mg/kg twice daily oral), the “effect on xenograft tumors” value is given as “complete eradication”. The “effect on xenograft tumors” value in assay [2] (other doses (0.25, 0.5, 1 mg/kg twice daily)) is “tumor growth inhibition”. Moreover, in assay [3] (1 mg/kg twice daily oral), the tumor regression is 33%. Moreover, the TGI entry in assay [3] (all doses) is reported as “significant TGI”. The “ATF4 activity, cells treated with HC-7366 and Halofuginone” value with ATF4 is listed as “GCN2 inhibitory effect”.
